In patent US20240043404A1 (AbbVie Inc., priority 2009, published 2024):
Read-outs that look alike come from different tables or passages of the source.

Test system: RS4;11 cells
Experiment: RS4;11 cell viability assay (CellTiter Glo);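 also: acute lymphoblastic leukemia line RS4,11, EC50 derived from percentage of viable cells after treatment relative to untreated controls, cell killing taken as a measure of Bcl-2 inhibition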
Format: cell-based, human
Conditions: Homo sapiens, read-out: RS4
[1] = RS4-11, 48 h, 50,000 cells per well, 10% human serum, 48 hours, 11 EC50 Values

Description: The acute lymphoblastic leukemia (ALL) cell line RS4;11 was used as the primary human cell line to assess the cellular activity of Bcl-2 selective agents in vitro and their efficacy in vivo.
Cell cytotoxicity EC50 values were assessed using CellTiter Glo (Promega) according to the manufacturer's recommendations. The EC50 values were determined as a percentage of viable cells following treatment compared to the untreated control cells.

Compound | EC50 [1] [nM] | EC50 (RS4-11, Table 5, direct comparison Z=N with corresponding analogs Z=C, 11 EC50) [nM]
CC1(C)CCC(CN2CCN(c3ccc(C(=O)NS(=O)(=O)c4ccc(Cl)c([N+](=O)[O-])c4)c(Oc4cnc5[nH]ccc5c4)c3)CC2)=C(c2ccc(Cl)cc2)C1 [Example 82, N-[(4-chloro-3-nitrophenyl)sulfonyl]-4-(4-{[2-(4-chlorophenyl)-4,4-dimethylcyclohex-1-en-1-yl]methyl}piperazin-1-yl)-2-(1H-pyrrolo[2,3-b]pyridin-5-yloxy)benzamide] | 684 | 
COCCOCCN1CCOC(CNc2ccc(S(=O)(=O)NC(=O)c3ccc(N4CCN(CC5=C(c6ccc(Cl)cc6)CC(C)(C)CC5)CC4)cc3Oc3cnc4[nH]ccc4c3)cc2[N+](=O)[O-])C1 (stereo not shown) [Example 213, 4-(4-{[2-(4-chlorophenyl)-4,4-dimethylcyclohex-1-en-1-yl]methyl}piperazin-1-yl)-N-({4-[({4-[2-(2-methoxyethoxy)ethyl]morpholin-2-yl}methyl)amino]-3-nitrophenyl}sulfonyl)-2-(1H-pyrrolo[2,3-b]pyridin-5-yloxy)benzamide] | 6.1 | 
CC1(C)CCC(CN2CCN(c3ccc(C(=O)NS(=O)(=O)c4ccc(NCC5CN(CC#N)CCO5)c([N+](=O)[O-])c4)c(Oc4cnc5[nH]ccc5c4)c3)CC2)=C(c2ccc(Cl)cc2)C1 (stereo not shown) [Example 214, 4-(4-{[2-(4-chlorophenyl)-4,4-dimethylcyclohex-1-en-1-yl]methyl}piperazin-1-yl)-N-{[4-({[4-(cyanomethyl)morpholin-2-yl]methyl}amino)-3-nitrophenyl]sulfonyl}-2-(1H-pyrrolo[2,3-b]pyridin-5-yloxy)benzamide] | 4.38 | 
CC1(C)CCC(CN2CCN(c3ccc(C(=O)NS(=O)(=O)c4cnc(O[C@@H]5CCN(C(CF)CF)C5)c(Cl)c4)c(Oc4cnc5[nH]ccc5c4)c3)CC2)=C(c2ccc(Cl)cc2)C1 [Example 274, N-[(5-chloro-6-{[(3R)-1-(1,3-difluoropropan-2-yl)pyrrolidin-3-yl]oxy}pyridin-3-yl)sulfonyl]-4-(4-{[2-(4-chlorophenyl)-4,4-dimethylcyclohex-1-en-1-yl]methyl}piperazin-1-yl)-2-(1H-pyrrolo[2,3-b]pyridin-5-yloxy)benzamide] | 214 | 
CC1(C)CCC(CN2CCN(c3ccc(C(=O)NS(=O)(=O)c4cnc(OC[C@@H]5CN(CC#N)CCO5)c(Cl)c4)c(Oc4cnc5[nH]ccc5c4)c3)CC2)=C(c2ccc(Cl)cc2)C1 [Example 244, N-[(5-chloro-6-{[(2S)-4-(cyanomethyl)morpholin-2-yl]methoxy}pyridin-3-yl)sulfonyl]-4-(4-{[2-(4-chlorophenyl)-4,4-dimethylcyclohex-1-en-1-yl]methyl}piperazin-1-yl)-2-(1H-pyrrolo[2,3-b]pyridin-5-yloxy)benzamide] | 794 | 
CC(=O)N1CCC(Nc2ccc(S(=O)(=O)NC(=O)c3ccc(N4CCN(CC5=C(c6ccc(Cl)cc6)CC(C)(C)CC5)CC4)cc3Oc3cnc4[nH]ccc4c3)cc2[N+](=O)[O-])CC1 [Example 53, N-({4-[(1-acetylpiperidin-4-yl)amino]-3-nitrophenyl}sulfonyl)-4-(4-{[2-(4-chlorophenyl)-4,4-dimethylcyclohex-1-en-1-yl]methyl}piperazin-1-yl)-2-(1H-pyrrolo[2,3-b]pyridin-5-yloxy)benzamide] | 66.7 | 
CO[C@H]1CC[C@@H](CNc2ccc(S(=O)(=O)NC(=O)c3ccc(N4CCN(CC5=C(c6ccc(Cl)cc6)CC(C)(C)OC5)CC4)cc3Oc3cnc4[nH]ccc4c3)cc2[N+](=O)[O-])CC1 [Example 72, Cis-4-(4-{[4-(4-chlorophenyl)-6,6-dimethyl-5,6-dihydro-2H-pyran-3-yl]methyl}piperazin-1-yl)-N-[(4-{[(4-methoxycyclohexyl)methyl]amino}-3-nitrophenyl)sulfonyl]-2-(1H-pyrrolo[2,3-b]pyridin-5-yloxy)benzamide] | 7.51 | 
CC1(C)CCC(CN2CCN(c3ccc(C(=O)NS(=O)(=O)c4cnc(OCC5(F)CCN(C(CF)CF)CC5)c(C(F)(F)F)c4)c(Oc4cnc5[nH]ccc5c4)c3)CC2)=C(c2ccc(Cl)cc2)C1 [Example 288, 4-(4-{[2-(4-chlorophenyl)-4,4-dimethylcyclohex-1-en-1-yl]methyl}piperazin-1-yl)-N-{[6-{[1-(1,3-difluoropropan-2-yl)-4-fluoropiperidin-4-yl]methoxy}-5-(trifluoromethyl)pyridin-3-yl]sulfonyl}-2-(1H-pyrrolo[2,3-b]pyridin-5-yloxy)benzamide] | 390 | 
CN(C)CC(=O)N1CCOC(CNc2ccc(S(=O)(=O)NC(=O)c3ccc(N4CCN(CC5=C(c6ccc(Cl)cc6)CC(C)(C)CC5)CC4)cc3Oc3cnc4[nH]ccc4c3)cc2[N+](=O)[O-])C1 (stereo not shown) [Example 215, 4-(4-{[2-(4-chlorophenyl)-4,4-dimethylcyclohex-1-en-1-yl]methyl}piperazin-1-yl)-N-{[4-({[4-(N,N-dimethylglycyl)morpholin-2-yl]methyl}amino)-3-nitrophenyl]sulfonyl}-2-(1H-pyrrolo[2,3-b]pyridin-5-yloxy)benzamide] | 0.56 | 
CC1(C)CCC(CN2CCN(c3ccc(C(=O)NS(=O)(=O)c4ccc(NC[C@@H]5CCN(C6CCOCC6)C5)c([N+](=O)[O-])c4)c(Oc4cnc5[nH]ccc5c4)c3)CC2)=C(c2ccc(Cl)cc2)C1 [Example 145, 4-(4-{[2-(4-chlorophenyl)-4,4-dimethylcyclohex-1-en-1-yl]methyl}piperazin-1-yl)-N-{[3-nitro-4-({[(3S)-1-tetrahydro-2H-pyran-4-ylpyrrolidin-3-yl]methyl}amino)phenyl]sulfonyl}-2-(1H-pyrrolo[2,3-b]pyridin-5-yloxy)benzamide] | 4 | 
CC(C)(CO)CNc1ccc(S(=O)(=O)NC(=O)c2ccc(N3CCN(CC4=C(c5ccc(Cl)cc5)CC(C)(C)CC4)CC3)cc2Oc2cnc3[nH]ccc3c2)cc1[N+](=O)[O-] [Example 146, 4-(4-{[2-(4-chlorophenyl)-4,4-dimethylcyclohex-1-en-1-yl]methyl}piperazin-1-yl)-N-({4-[(3-hydroxy-2,2-dimethylpropyl)amino]-3-nitrophenyl}sulfonyl)-2-(1H-pyrrolo[2,3-b]pyridin-5-yloxy)benzamide] | 19.2 | 
CN(C)CC(=O)N1CCC(COc2ncc(S(=O)(=O)NC(=O)c3ccc(N4CCN(CC5=C(c6ccc(Cl)cc6)CC(C)(C)CC5)CC4)cc3Oc3cnc4[nH]ccc4c3)cc2Cl)CC1 [Example 260, N-[(5-chloro-6-{[1-(N,N-dimethylglycyl)piperidin-4-yl]methoxy}pyridin-3-yl)sulfonyl]-4-(4-{[2-(4-chlorophenyl)-4,4-dimethylcyclohex-1-en-1-yl]methyl}piperazin-1-yl)-2-(1H-pyrrolo[2,3-b]pyridin-5-yloxy)benzamide] | 5.43 | 
CC1(C)CCC(CN2CCN(c3ccc(C(=O)NS(=O)(=O)c4ccc(NCC5(N)CCOCC5)c([N+](=O)[O-])c4)c(Oc4cnc5[nH]ccc5c4)c3)CC2)=C(c2ccc(Cl)cc2)C1 [Example 108, N-[(4-{[(4-aminotetrahydro-2H-pyran-4-yl)methyl]amino}-3-nitrophenyl)sulfonyl]-4-(4-{[2-(4-chlorophenyl)-4,4-dimethylcyclohex-1-en-1-yl]methyl}piperazin-1-yl)-2-(1H-pyrrolo[2,3-b]pyridin-5-yloxy)benzamide] | 24.1 | 
CC1(C)C=CC(c2ccc(Cl)cc2)=C(CN2CCN(c3ccc(C(=O)NS(=O)(=O)c4ccc(NCC5CCOCC5)c([N+](=O)[O-])c4)c(Oc4cnc5[nH]ccc5c4)c3)CC2)C1 [Example 206, 4-(4-{[2-(4-chlorophenyl)-5,5-dimethylcyclohexa-1,3-dien-1-yl]methyl}piperazin-1-yl)-N-({3-nitro-4-[(tetrahydro-2H-pyran-4-ylmethyl)amino]phenyl}sulfonyl)-2-(1H-pyrrolo[2,3-b]pyridin-5-yloxy)benzamide] | 52.9 | 
CC1(C)CCC(CN2CCN(c3ccc(C(=O)NS(=O)(=O)c4ccc(NCC5CCOCC5)c(S(=O)(=O)C(F)(F)F)c4)c(Oc4ccc5[nH]ccc5c4)c3)CC2)=C(c2ccc(Cl)cc2)C1 [Example 94, 4-(4-{[2-(4-chlorophenyl)-4,4-dimethylcyclohex-1-en-1-yl]methyl}piperazin-1-yl)-2-(1H-indol-5-yloxy)-N-({4-[(tetrahydro-2H-pyran-4-ylmethyl)amino]-3-[(trifluoromethyl)sulfonyl]phenyl}sulfonyl)benzamide] | 1690 | 1690
CC1(C)CCC(CN2CCN(c3ccc(C(=O)NS(=O)(=O)c4ccc(NC5CCN(CC(F)(F)F)CC5)c([N+](=O)[O-])c4)c(Oc4cnc5[nH]ccc5c4)c3)CC2)=C(c2ccc(Cl)cc2)C1 [Example 83, 4-(4-{[2-(4-chlorophenyl)-4,4-dimethylcyclohex-1-en-1-yl]methyl}piperazin-1-yl)-N-[(3-nitro-4-{[1-(2,2,2-trifluoroethyl)piperidin-4-yl]amino}phenyl)sulfonyl]-2-(1H-pyrrolo[2,3-b]pyridin-5-yloxy)benzamide] | 197 | 
CC1(C)CCC(CN2CCN(c3ccc(C(=O)NS(=O)(=O)c4ccc(NC[C@H]5CN(C6COC6)CCO5)c([N+](=O)[O-])c4)c(Oc4cnc5[nH]ccc5c4)c3)CC2)=C(c2ccc(Cl)cc2)C1 [Example 361, 4-(4-{[2-(4-chlorophenyl)-4,4-dimethylcyclohex-1-en-1-yl]methyl}piperazin-1-yl)-N-{[3-nitro-4-({[(2S)-4-(oxetan-3-yl)morpholin-2-yl]methyl}amino)phenyl]sulfonyl}-2-(1H-pyrrolo[2,3-b]pyridin-5-yloxy)benzamide] | 0.538 | 
CC1(C)CCC(CN2CCN(c3ccc(C(=O)NS(=O)(=O)c4ccc(N[C@H]5CCCNC5=O)c([N+](=O)[O-])c4)c(Oc4cnc5[nH]ccc5c4)c3)CC2)=C(c2ccc(Cl)cc2)C1 [Example 160, 4-(4-{[2-(4-chlorophenyl)-4,4-dimethylcyclohex-1-en-1-yl]methyl}piperazin-1-yl)-N-[(3-nitro-4-{[(3S)-2-oxopiperidin-3-yl]amino}phenyl)sulfonyl]-2-(1H-pyrrolo[2,3-b]pyridin-5-yloxy)benzamide] | 83.6 | 
